The target of series [1] is human LDH-M (LDH-A4). More on the design: method as in PMID 9748363. The following applies: cited from earlier work.
Series [2] deals with Plasmodium falciparum LDH. More on the design: method as in PMID 9748363. The following applies: cited from earlier work.
Series [3] has as its system LDH activity in B. microti. The following applies: cited from earlier work; for IC50: previous work.
The nature of series [4]: in vitro. It is filed as cell-based. The following applies: African green monkey. The protocol: The mycoplasma-free Vero cell line (ATCC-CCL-81, immortalized cells) was cryopreserved in liquid nitrogen with DMSO at the National Key Laboratory of Agricultural Microbiology, Huazhong Agricultural University, China. The cytotoxicity of compounds TA and TB was assessed in Vero cells using the CCK-8 assay (Vazyme). Briefly, Vero cells (100 µL, 10,000 cells/well) were cultured in Dulbecco’s modified Eagle medium (DMEM) supplemented with 10% fetal bovine serum (FBS) and 100 U/mL penicillin–streptomycin at 37 ℃ with 5% CO2 for 24 h. The cells were then treated with varying concentrations of TA (2000, 1000, 500, 250, and 125 μM) or TB (800, 400, 200, 100, and 50 μM) for 72 h. After the treatment period, the medium containing TA and TB was replaced with fresh medium. Subsequently, 10 µL of CCK-8 solution was added to each well, and the plate was incubated for an additional 3 h. Absorbance was measured at 450 nm using a multifunctional enzyme marker (Envision, PE, USA). Stock solutions of TA and TB were prepared at a concentration of 100 mM in absolute ethanol. Doxorubicin hydrochloride at 40 µM served as the positive control, while 2% absolute ethanol served as the negative control. The concentration required to achieve 50% cytotoxicity (CC50) values were calculated using GraphPad Prism 8, and all cytotoxicity assays were performed in triplicate.

The target in series [5] is T1, rBmLDH (Babesia microti, UniProt I7J7V6). It is filed as biochemical. The following applies: pH 9.5; read-out: BmLDH IC50.
Series [6] deals with T1, rBmLDH. It is filed as binding. The following applies: for Kd: read-out: equilibrium dissociation constant (Kd).
Series [7] has as its system B. microti. Description: In vitro growth inhibition of B. microti. It is filed as cell-based. The following applies: Babesia microti, Erythrocyte, 72 h, read-out: B. microti IC50 (growth inhibition). The procedure: Once parasitemia reached 60%, blood was collected from the tails of the mice, and the initial percent parasitized erythrocytes (PPE) was diluted to approximately 0.8% using healthy mouse erythrocytes. […] Cultures were incubated for 72 h at 37 ℃ in a gas mixture of 2% O2, 5% CO2, and 93% N2 [23, 24]. After incubation, blood smears were prepared, stained with Giemsa, and the parasitemia rate was calculated. All experiments were performed in triplicate.

SMILES strings stand for the structures. “Also recorded” adds a separate entry of the source. Where two headings read alike, the source gives them in different places.

T1 sequence (I7J7V6 1-332): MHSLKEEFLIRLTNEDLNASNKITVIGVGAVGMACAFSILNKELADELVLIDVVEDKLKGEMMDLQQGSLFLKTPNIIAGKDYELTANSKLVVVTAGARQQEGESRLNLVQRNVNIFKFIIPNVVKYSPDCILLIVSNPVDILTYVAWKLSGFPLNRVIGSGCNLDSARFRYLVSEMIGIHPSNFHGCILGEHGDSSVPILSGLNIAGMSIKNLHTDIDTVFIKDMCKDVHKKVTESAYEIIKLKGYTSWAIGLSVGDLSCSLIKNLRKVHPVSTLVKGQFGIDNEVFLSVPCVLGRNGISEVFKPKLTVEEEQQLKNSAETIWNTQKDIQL

For orientation: Ki means the dissociation constant of the complex between target and ligand, obtained from inhibition or displacement. Consider `CCCc1c(O)c(O)c(C(=O)O)c2cc(Cc3ccccc3)c(C)cc12` [Compound 11F], for which the figures for the inhibitory constant (Ki) in series [1] and in series [2] were 50 nM and 300 nM, respectively.

The term IC50 denotes the concentration that gives 50% inhibition. Consider `O=C(O)c1cc2cc(Br)ccc2c(Br)c1O` [DBHCA, 1,6-dibromo-2-hydroxynapthalene 3-carboxylic acid], for which the IC50 in series [3] is 52.7 µM.

As to `O=C(O)c1cc2cccc(O)c2cc1O` [DHNA, 3,5-dihydroxy-2-naphthoxylic acid], in series [3], the IC50 was 30 µM.

As for `Cc1cc2c(C(C)C)c(O)c(O)c(C=O)c2c(O)c1-c1c(C)cc2c(C(C)C)c(O)c(O)c(C=O)c2c1O` [Gossypol], the “concentration that significantly inhibits LDH activity in B. microti” value in series [3] (in vitro) was 592 nM.

Broadly, the CC50 is the concentration at which the toxic effect on the cells reaches its halfway point. Usually Kd stands for a measure of binding affinity in units of concentration. In the case of `O=C(O)c1ccccc1Cc1ccc2ccc(O)cc2c1` [TA], in series [4], half-maximal cytotoxicity (CC50 at 72 h) was put at 1030 µM. For the same compound, the 50% inhibitory concentration (IC50) in series [5] came to 71.6 µM. Moreover, in series [6], the “binding capacity/affinity to rBmLDH compared with lead compound DHNA” value is given as “over a threefold increase in binding capacity; also recorded: more than three times higher affinity” and the dissociation constant (Kd) came to 11.3 µM. Besides, the IC50 in series [7] (in vitro culture in mouse erythrocytes, 37 ℃) was found to be 122 µM.

Compound `O=C(O)c1cccc(-c2ccc3ccc(O)cc3c2)c1` [TB] displayed a CC50 at 72 h in series [4] of 434 µM. The IC50 in series [5] was 23.8 µM. In series [6], the “binding capacity/affinity to rBmLDH compared with lead compound DHNA” value is recorded as “over a threefold increase in binding capacity; also recorded: more than three times higher affinity” and the equilibrium dissociation constant (Kd) came out at 13.2 µM. In series [7] (in Mus musculus), the half-maximal inhibitory concentration (IC50) was determined as 112 µM.

These data come from PMC11847361, “Design and screening of novel molecular compounds targeting lactate dehydrogenase of Babesia microti” (Parasites & Vectors, 2025).
